Source: patent publication US20260201008A1, “SECRETIN-DERIVED GLP1R SELECTIVE AGONISTS” (GUBRA A/S, priority 2023, published 2026)
Numbered stars: 1 amine (or outer) side, 2 acyl side, 3 side chain; on linkers, the order of the positions; unused ones are H or OH. Square brackets hold non-standard residues; d marks the D form. Side chains are listed from the residue outwards. Peptide text beside a SMILES is read from it. * marks the point of attachment. C20 diacid = O=C(O)CCCCCCCCCCCCCCCCCCC(=O)*; γGlu = O=C(O)[C@H](CCC(=O)[*:2])N[*:1]; AEEA = NCCOCCOCC(=O)O; Aib = CC(C)(N)C(=O)O

Columns and labels:
[1] = Fibril formation of crude library peptides (Thioflavin T); assay type: physicochemical; set-up: key: average ThT fluorescence emission at 480 nm (ex 450 nm), raw units; details: Physical stability of peptides
In short: (§1)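 Crude peptides at 267 μM in 50 mM sodium acetate pH 4.0 or 50 mM sodium phosphate pH 7.0, pre-incubated 1-2 h at room temperature, then 4 μM final ThT added. Turbidity read first as A600. ThT fluorescence (ex 450/em 480 nm) read every 10 min for 72 h at 40° C, with 5 min shaking before each read; fibril formation = average emission.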

GLP1R = GLP1R (Homo sapiens, UniProt P43220); assay: hGLP1R potency, cAMP accumulation in CHO-K1 cells stably overexpressing hGLP1R; assay type: cell-based; set-up: host or cells: CHO-K1; details: for EC50: cAMP accumulation, CHO-K1 cells overexpressing hGLP1R, read-out: hGLP1R pEC50 (converted); for SCTR EC50/GLP1R EC50 ratio: selectivity for hGLP1R over hSCTR, cAMP accumulation in CHO-K1 cells
In short: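 CHO-K1 cells stably expressing hGLP1R (2000/well) in DPBS with 0.05% casein and 0.5 mM IBMX were stimulated 30 min at room temperature with graded compound doses; human GLP-1(7-36) served as positive control. cAMP was read by HTRF after 1 h; EC50 came from variable-slope sigmoid fits (purified peptides: 11-point 3-fold, n=2).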

SCTR = SCTR (Homo sapiens, UniProt P47872); assay: hSCTR potency, cAMP accumulation in CHO-K1 cells stably overexpressing hSCTR; assay type: cell-based; set-up: alternatively Euroscreen ES-712-AF; FAST-0161L; host or cells: CHO-K1; details: cAMP accumulation, CHO-K1 cells overexpressing hSCTR; read-out: hSCTR pEC50 (converted)
In short: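 Cells plated at 2000/well in DPBS with 0.05% casein and 0.5 mM IBMX, stimulated 30 min at room temperature with graded compound doses; human secretin as positive control. cAMP read by TR-FRET after 1 h. Purified peptides tested at 11 3-fold dilutions, n=2; EC50 by variable-slope sigmoid fit.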

[2] = Turbidity of crude library peptides (absorbance at 600 nm); assay type: physicochemical; details: Physical stability of peptides
In short: as §1

Chain of GLP1R (P43220 24-463): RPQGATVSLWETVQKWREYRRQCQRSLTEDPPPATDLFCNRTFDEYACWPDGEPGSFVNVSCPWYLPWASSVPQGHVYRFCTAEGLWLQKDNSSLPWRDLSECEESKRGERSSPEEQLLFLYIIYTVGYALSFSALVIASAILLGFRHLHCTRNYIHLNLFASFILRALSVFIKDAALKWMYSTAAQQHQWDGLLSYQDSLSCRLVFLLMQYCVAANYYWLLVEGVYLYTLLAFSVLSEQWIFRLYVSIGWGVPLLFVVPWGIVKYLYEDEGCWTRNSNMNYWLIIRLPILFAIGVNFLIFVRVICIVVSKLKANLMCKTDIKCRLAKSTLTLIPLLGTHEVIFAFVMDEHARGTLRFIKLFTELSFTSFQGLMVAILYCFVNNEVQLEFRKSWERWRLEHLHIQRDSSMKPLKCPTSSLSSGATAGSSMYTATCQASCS
Chain of SCTR (P47872 23-440): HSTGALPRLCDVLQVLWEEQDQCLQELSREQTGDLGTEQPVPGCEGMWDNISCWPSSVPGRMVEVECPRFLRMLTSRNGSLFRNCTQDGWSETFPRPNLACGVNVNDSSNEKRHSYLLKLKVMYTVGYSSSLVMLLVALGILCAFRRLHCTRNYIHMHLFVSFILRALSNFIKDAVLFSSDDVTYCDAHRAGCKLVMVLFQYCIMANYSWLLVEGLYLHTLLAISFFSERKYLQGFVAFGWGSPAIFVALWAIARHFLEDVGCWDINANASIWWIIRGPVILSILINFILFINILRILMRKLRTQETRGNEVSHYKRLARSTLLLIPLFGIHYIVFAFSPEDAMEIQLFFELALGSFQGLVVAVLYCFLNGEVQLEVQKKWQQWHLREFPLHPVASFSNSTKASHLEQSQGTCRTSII

Row | Fibril formation [1] | EC50 (GLP1R) | SCTR EC50/GLP1R EC50 ratio (GLP1R) | EC50 (SCTR) | Turbidity (pH 7) [2] | Structure (SMILES)
1 | 260000 | 0.0158 nM | 30839 | 501 nM | 0.53 | CC[C@H](C)[C@H](NC(=O)[C@H](Cc1ccccc1)NC(=O)[C@H](CCCNC(=N)N)NC(=O)[C@H](CCC(N)=O)NC(=O)[C@H](CC(C)C)NC(=O)[C@H](C)NC(=O)[C@H](C)NC(=O)CNC(=O)[C@H](CCC(=O)O)NC(=O)[C@H](CC(C)C)NC(=O)[C@H](CC(C)C)NC(=O)[C@H](Cc1ccccc1)NC(=O)[C@H](CO)NC(=O)[C@@H](NC(=O)[C@H](CC(=O)O)NC(=O)[C@H](CO)NC(=O)[C@@H](NC(=O)[C@H](Cc1ccccc1)NC(=O)[C@@H](NC(=O)CNC(=O)[C@H](CCC(=O)O)NC(=O)C(C)(C)NC(=O)[C@@H](N)Cc1c[nH]cn1)[C@@H](C)O)[C@@H](C)O)C(C)C)C(=O)N[C@@H](CCC(N)=O)C(=O)N[C@@H](Cc1c[nH]c2ccccc12)C(=O)N[C@@H](CC(C)C)C(=O)N[C@H](C(N)=O)C(C)C [compound 177] (H-H[Aib]EGTFTSDVSFLLEGAALQRFIQWLV-NH2)
2 | 2891 | 0.00794 nM | 8838 | 63.1 nM | 0.08 | CC(C)C[C@H](NC(=O)[C@H](Cc1ccccc1)NC(=O)[C@H](CCCNC(=N)N)NC(=O)[C@H](CCC(N)=O)NC(=O)[C@H](CC(C)C)NC(=O)C(C)(C)NC(=O)[C@H](C)NC(=O)[C@H](CCC(=O)O)NC(=O)[C@H](CCC(=O)O)NC(=O)[C@H](CCCCNC(=O)COCCOCCNC(=O)COCCOCCNC(=O)CC[C@H](NC(=O)CCCCCCCCCCCCCCCCCCC(=O)O)C(=O)O)NC(=O)[C@H](CC(C)C)NC(=O)[C@H](Cc1c[nH]cn1)NC(=O)[C@H](CO)NC(=O)[C@@H](NC(=O)[C@H](CC(=O)O)NC(=O)[C@H](CO)NC(=O)[C@@H](NC(=O)[C@H](Cc1ccccc1)NC(=O)[C@@H](NC(=O)CNC(=O)[C@H](CCC(=O)O)NC(=O)C(C)(C)NC(=O)[C@@H](N)Cc1c[nH]cn1)[C@@H](C)O)[C@@H](C)O)C(C)C)C(=O)N[C@@H](CCC(=O)O)C(=O)N[C@@H](Cc1c[nH]cn1)C(=O)N[C@@H](CC(C)C)C(=O)N[C@H](C(N)=O)C(C)C [compound 145] (H-H[Aib]EGTFTSDVSHLK([AEEA-AEEA-γGlu-C20 diacid])EEA[Aib]LQRFLEHLV-NH2)
3 | 238242 | 0.01 nM | 19436 | 200 nM | 0.50 | CC[C@H](C)[C@H](NC(=O)[C@H](Cc1ccccc1)NC(=O)[C@H](CCCNC(=N)N)NC(=O)[C@H](CCC(N)=O)NC(=O)[C@H](CC(C)C)NC(=O)[C@H](C)NC(=O)[C@H](C)NC(=O)CNC(=O)[C@H](CCC(=O)O)NC(=O)[C@H](CC(C)C)NC(=O)[C@H](CC(C)C)NC(=O)[C@H](Cc1ccccc1)NC(=O)[C@H](CO)NC(=O)[C@@H](NC(=O)[C@H](CC(=O)O)NC(=O)[C@H](CO)NC(=O)[C@@H](NC(=O)[C@H](Cc1ccccc1)NC(=O)[C@@H](NC(=O)CNC(=O)[C@H](CCC(=O)O)NC(=O)C(C)(C)NC(=O)[C@@H](N)Cc1c[nH]cn1)[C@@H](C)O)[C@@H](C)O)[C@@H](C)CC)C(=O)N[C@@H](CCC(N)=O)C(=O)N[C@@H](Cc1c[nH]c2ccccc12)C(=O)N[C@@H](CC(C)C)C(=O)N[C@H](C(N)=O)C(C)C [compound 117] (H-H[Aib]EGTFTSDISFLLEGAALQRFIQWLV-NH2)
